Results on five compounds are retold here after US5753661A, “Fused benzo compounds containing a nitrogen heterocycle for the treatment of central nervous system disorders” (priority 1992, dated 1998).

SMILES strings stand for the structures. Some results are limits rather than exact numbers.

Assay [1] deals with T1, 5-HT1A receptor (Rattus norvegicus, UniProt P19327).
T1 sequence (P19327 1-422): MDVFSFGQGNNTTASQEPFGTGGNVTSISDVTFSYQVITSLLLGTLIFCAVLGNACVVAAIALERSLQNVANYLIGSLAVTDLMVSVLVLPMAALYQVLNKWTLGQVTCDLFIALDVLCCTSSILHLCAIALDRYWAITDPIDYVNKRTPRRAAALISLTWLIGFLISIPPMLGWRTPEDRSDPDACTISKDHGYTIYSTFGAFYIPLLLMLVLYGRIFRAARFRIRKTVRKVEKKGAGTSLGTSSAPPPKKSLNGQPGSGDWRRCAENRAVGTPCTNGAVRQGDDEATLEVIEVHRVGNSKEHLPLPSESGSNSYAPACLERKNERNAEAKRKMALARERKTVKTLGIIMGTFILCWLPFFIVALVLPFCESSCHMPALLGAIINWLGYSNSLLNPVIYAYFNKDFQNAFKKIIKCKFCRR
Kind of assay: Inhibition of 3H-8-OH-DPAT binding to serotonin 5-HT1A receptors in rat brain in vitro. Also on record: 5-HT1A receptors in membranes from rat brain minus cerebellum; from tissue; host or cells: rat brain minus cerebellum, membranes. The settings on record: 3H-8-OH-DPAT 1 nM; membranes from rat brain minus cerebellum; read-out: IC50, 3H 8-OH-DPAT binding. The procedure:
Inhibition of ^3 H-8-OH-DPAT Binding to Serotonin 5-HT1A Receptors in Rat Brain in vitro.
By this method the inhibition by drugs of the binding of the 5-HT1A agonist 3H-8-OH-DPAT (1 nM) to 5-HT1A receptors in membranes from rat brain minus cerebellum is determined in vitro . Accordingly, this is a test for affinity for the 5-HT1A receptor. The assay was performed as described by Hyttel et al., Drug Dev. Res. 1988, 15, 389-404.

Assay [2] addresses T1, 5-HT1A receptor. Kind of assay: Inhibition of 5-MeO-DMT-induced 5-HT syndrome in rats. The format is in vivo, rat (male Wistar). More on the design: Male Wistar rats (Mol:Wist) weighing 170-240 g are used; from tissue; host or cells: living male Wistar rat (Mol:Wist) (in vivo, endogenous receptor). The following applies: sc, 5-MeO-DMT 5 mg/kg s.c., inhibition of piano playing. The text has this:
Inhibition of 5-MeO-DMT-Induced 5-HT Syndrome in Rats
The so-called 5-HT syndrome is a characteristic pattern of behaviours which are induced by 5-HT agonists with effects on 5-HT, possibly 5-HT1A receptors (Smith, L. M. and Peroutka, S. J., Pharmacol. Biochem. & Behaviour, 1986, 24, 1513; Tricklebank, M. et al, Eur. J. Pharmacol. 1985, 117, 15). This test is a test for determining the antagonist effects of a test compound on 5-HT1A receptors in vivo by measuring the ability to inhibit 5-MeO-DMT induced 5-HT syndrome.
Male Wistar rats (Mol:Wist) weighing 170-240 g are used. Test substance is injected s.c. before 5-MeO-DMT 5 mg/kg, s.c. Four rats are used for each dose. A control group pretreated with saline is included each test day. 10, 15 and 20 min later the rats are observed for presence of serotonin (5-HT) syndrome. The following symptoms are recorded: 1) forepaw treading ("piano playing"), 2) head weaving and 3) hindleg abduction. Furthermore, flat motility is scored. Each part of the syndrome is scored as follows: marked effect (score 2), weak syndrome (score 1) and no effect (score 0). The scores of the three observation periods are added. Thus the maximum obtainable score for four rats is 24. The effect of the test substance is expressed as percent inhibition relative to the control group.
The percent inhibition of the piano playing syndrome is used as the response and ED50 value are calculated by log-probit analysis.

Assay [3] deals with T1, 5-HT1A receptor. The assay is described as follows: Generalization to the discriminative stimulus properties induced by 8-OH-DPAT in rats (8-OH-DPAT cue, agonism). The following applies: for ED50: rat, sc, usually 30 or 45 min before test. Also on record: from tissue; host or cells: living male Wistar rat (in vivo, endogenous receptor). The format is in vivo, rat (male Wistar). The text has this:
Generalization to the Discriminative Stimulus Properties Induced by 8-OH-DPAT in Rats
This test is used to determine the 5-HT1A receptor agonistic effect of a test compound in vivo. A related method is described by Tricklebank, M. D., supra; Amt, J. Pharmacology & Toxicology, 1989, 64, 165.
The per cent drug responce obtained for each dose of test compound is used to calculate ED50 values by log-probit analysis.

Assay [4] deals with T1, 5-HT1A receptor. The assay is described as follows: Antagonism of the discriminative stimulus properties induced by 8-OH-DPAT in rats (8-OH-DPAT cue). The format is in vivo, rat (male Wistar). More on the design: from tissue; host or cells: living male Wistar rat (in vivo, endogenous receptor). The following applies: sc, before 8-OH-DPAT 0.4 mg/kg i.p. As to the method: Antagonism of the Discriminative Stimulus Properties Induced by 8-OH-DPAT in Rats.
This test is used to determine the 5-HT1A receptor antagonistic effect of a test compound in vivo. A related method is described by Tricklebank, M. D., et al, Eur. J. Pharmacol, 1987, 133, 47-56; Amt, J. Pharmacology & Toxicology, 1989, 64, 165.
Male Wistar rats are trained to discriminate between 8-OH-DPAT (0.4 mg/kg, i.p., 15 min pretreatment) and physiological saline in operant chambers equipped with two response levers. Between the levers a dipper is placed, where water rewards (0.1 ml) are presented. The rats are water deprived for at least 24 h and work in a fixed ratio (FR) schedule (final FR=32).
Following 8-OH-DPAT administration, responding is reinforced only on a designated (drug) lever, whereas responding on the opposite lever has no consequences. Following saline administration, responding is reinforced on the lever opposite to the drug lever. Drug and saline trials alternate randomly between days. The level of discrimination accuracy is expressed as the per cent drug responses and is calculated as the number of correct responses ×100 divided by the sum of the correct and incorrect responses before the first reward. The time to the first reward is also recorded as a measure of reaction time. When stable accuracy (mean correct responding=90%; individual rats at least 75% correct responding) is obtained test sessions are included between training days. Test compound is injected s.c. or p.o. at appropriate time before 8-OH-DPAT and the test begins 15 min after 8-OH-DPAT injection. The test trial is terminated when a total of 32 responses are made on either lever or when 20 min have elapsed. No reward is given and the rats have free access to water for 20-30 min after the test. The effects are expressed as per cent inhibition of drug responding. Only results from rats making at least 10 responses on one lever are included in data analysis. Furthermore, only test sessions in which at least half of the rats respond are included.
The per cent inhibition of drug response obtained for each dose of test compound is used to calculate ED50 values by log-probit analysis.

The next assay concerns 5-HT1A. The settings on record: cited from earlier work.

The term IC50 denotes the concentration that inhibits the measured activity by half. By ED50 is commonly meant the dose that gives a 50% effect, or the effect in half of the subjects. As to `O=S(=O)(CCCN1CCN(c2cccc3c2OCCO3)CC1)C1CCCCC1` [Compound 1a, 1-(1,4-Benzodioxan-5-yl)-4-(3-cyclohexylsulfonyl-1-propyl)piperazine], the concentration for half-maximal inhibition (IC50) at 5-HT1A receptor [1] came to 2.6 nM. Moreover, the ED50 was 2.3 µmol/kg on 5-HT1A receptor [2], 0.034 µmol/kg on 5-HT1A receptor [3] and above 0.62 µmol/kg on 5-HT1A receptor [4].
For `O=C1CC2(CCCC2)CC(=O)N1CCCCN1CCN(c2ncccn2)CC1` [Buspirone, 8-[4-[4-(2-pyrimidyl)-1-piperazinyl]butyl]-8-azaspiro[4,5]decane-7,9-dione], the “5-HT1A agonist activity, in words” value with 5-HT1A was 5-HT1A partial agonists.
For `O=C(NCCN1CCN(c2cccc3c2OCC(CO)O3)CC1)c1ccc(F)cc1` (stereo not shown) [Flesinoxane, 4-fluoro-N-[2-(4-(2-hydroxymethyl-1,4-benzodioxan-5-yl)piperazine-1-yl)ethyl]benzamide, reference compound], the IC50 on 5-HT1A receptor [1] came out at 4 nM. The ED50 on 5-HT1A receptor [2] was above 44 µmol/kg; at 5-HT1A receptor [3], 0.38 µmol/kg. The “antidepressant and anxiolytic effects, in words” value in the assay with 5-HT1A (Schipper et al, Human Psychopharm., 1991) was “antidepressant and anxiolytic effects”. The “5-HT1A agonist activity, in words” value in the assay with 5-HT1A is “high efficacy 5-HT1A agonist”.
For `O=C1N(CCN2CCN(c3cccc4c3OCCO4)CC2)CCN1C1CCCC1` [Compound 2b, 1-[2-[4-(1,4-Benzodioxan-5-yl)-1-piperazinyl]ethyl]-3-cyclopentyl-2-imidazolidinone], the concentration for half-maximal inhibition (IC50) at 5-HT1A receptor [1] was determined as 18 nM. Besides, the results for the ED50 at 5-HT1A receptor [2], at 5-HT1A receptor [3] and at 5-HT1A receptor [4] were 8.9 µmol/kg, above 11 µmol/kg and 2.7 µmol/kg, respectively.
`O=C1N(CCCCN2CCN(c3cccc4c3OCCO4)CC2)CCN1C1CCCCC1` [Compound 2e, 1-[4-[4-(1,4-Benzodioxan-5-yl)-1-piperazinyl]-1-butyl]-3-cyclohexyl-2-imidazolidione]: at 5-HT1A receptor [1], the IC50 came out at 0.45 nM. The ED50 on 5-HT1A receptor [2] came out at 4.7 µmol/kg; at 5-HT1A receptor [4], 6.1 µmol/kg. At 5-HT1A receptor [3] (8-OH-DPAT cue model, s.c.), the “agonist activity/efficacy in words, 8-OH-DPAT cue” value was “partial agonist”. Moreover, the “response, 8-OH-DPAT cue agonism” value on 5-HT1A receptor [3] (at 0.6-2.4 μmol/kg, s.c. (note c)) is listed as 20-60%.
